Measurements from EP2769738B1, “Conjugated TLR7 and/or TLR8 and TLR2 polycationic agonists” (Invivogen, priority 2013, dated 2014).
“And” between values parts separate entries of the source, which are not always exact repeats. Identical values can stand only once.

Experiment: Determination of nanoparticle (lipoplex) size by dynamic light scattering
Format: physicochemical
Settings: ratio 3:24 (w:w); for Conformity (C)/ Non-conformity (NC) / Mean Diameter (nm): complexes with pDNA; for Mean Diameter (nm): dynamic light scattering at 25°C; for Mean Diameter (nm) / PDI: triplicate measurements; for PDI: polydispersity index of complexes with pDNA, 25°C
Experimental: • 1. Preparative HPLC Method: Unless otherwise indicated, the compounds described herein were purified by RP-MPLC ARMEN® Spot Flash Liquid Chromatography (ARMEN Instrument, Saint Ave, France) on a preparative column (SVF D26) packed with 25-40 µm C18 resin (Merck chimie SAS), by applying a linear gradient of 0-10% MeCN in NH4OAc (10 mM) solution (pH = 9) over 60 min at a 15 mL/min flow rate. The purification was monitored at 254 nm. Suitable fractions were pooled and lyophilised. • 2. Proton NMR Spectra: Unless otherwise indicated, all ^1H NMR spectra were run on a Bruker series 300 MHz instrument. Where so characterized, all observed protons are reported as parts-per-million (ppm) downfield from tetramethylsilane (TMS) or other internal reference in the appropriate solvent indicated. NMR spectra were recorded on a Brucker 300 spectrometer. For ^1H (300 MHz) spectra δ values were referenced to CDCI3-d1 (7.26 ppm), DMSO- d6 (2.50 ppm), D2O-d2 (4.79 ppm) or MeOD-d4 (3.31 ppm). The peak patterns are indicated as follows: s: singlet, sl: large singlet, d: doublet, t: triplet, q: quartet, m: multiplet. • 3. Mass Spectra (MS): Analyses were run on an Agilent Model 6130 quadrupole MS. Unless otherwise indicated, all mass spectral data for starting materials, intermediates and/or exemplary compounds are reported as mass/charge (m/z), having an (M+H)^+ molecular ion. The molecular ion reported was obtained by electrospray detection method (commonly referred to as an ESI MS). Compounds having an isotopic atom, such as bromine and the like, are generally reported according to the detected isotopic pattern, as appreciated by those skilled in the art. • 4. Particle size: Particle size was determined using a Malvern Nanosizer (Malvern, Worcestershire, UK) and Malvern ZETASIZER.RTM. (Malvern, Worcestershire, UK). • 5. Naming Convention The compounds disclosed and described herein have been named using the naming convention provided with Chem-Draw Ultra 11.0 software, available in Chem. Office. In some instances, compounds were named with the term "spermine" inserted where appropriate. For example, where the spermine is substituted with Boc, "N1,N5,N10-TriBoc-spermine" is added to the Chem-Draw nomenclature in the appropriate place. Chem-Draw utilizes the ISIS Draw software compound naming convention, as appreciated by those skilled in the art.
For pDNA:TLR7-TLR2 polyamine molecules complexes, a ratio pDNA:TLR7-TLR2 polyamine molecules of 3:24 (w:w) was prepared in serum-free culture medium or in 5% glucose. The TLR7-TLR2 conjugated compound of interest was prediluted in serum-free culture medium or in 5% glucose and incubated for 5 minutes at room temperature, prior to the addition of an endotoxin-free, salt-free preparation of pDNA. In these experiments, the pBsr2pCpGLacZh plasmid was used in the pDNA:TLR7-TLR2 polyamine molecule complexes. The pDNA:TLR7-TLR2 polyamine molecule mixtures were incubated at room temperature for 30 minutes to allow the formation of the complex. The control used in these experiments was the cationic lipid transfection agent LyoVec™ (InvivoGen) prepared in a similar manner.
In order to confirm that TLR7-TLR2 polyamine molecules complex DNA, lipoplex size was determined. The physical characterization of complex was achieved by dynamic light scattering using the analytical equipment for laser diffraction Zetasizer Nano-ZS (Malvern). pDNA:TLR7-TLR2 polyamine molecule complexes were prepared as described above. Subsequently, 50µl of pDNA: TLR7-TLR2 polyamine molecule complexes were placed into a disposable sizing cuvette and measurements were made under conditions defined according to manufacturer's instructions. The measurements were made at 25°C in triplicate and a size distribution report was obtained. […]

## CCCCCCCCCCCCCCCC(=O)OCC(CSC[C@H](N)C(=O)N[C@@H](CO)C(=O)N[C@@H](CCCCN)C(=O)N[C@@H](CCCCN)C(=O)N[C@@H](CCCCNC(=O)c1ccc(Cn2c(O)nc3c(N)nc(NCCCC)nc32)cc1)C(=O)N[C@@H](CCCCN)C(=O)O)OC(=O)CCCCCCCCCCCCCCC (stereo partly drawn) [CL530, (2S,5S,8S,11S,14S,17R)-17-amino-5-(4-(4-((6-amino-2-(butylamino)-8-hydroxy-9H-purin-9-yl)methyl)benzamido)butyl)-2,8,11-tris(4-aminobutyl)-14-(hydroxymethyl) -4,7,10,13,16,24-hexaoxo-21-(palmitoyloxy)-23-oxa-19-thia-3,6,9,12,15-pentaaza nonatriacontan-1-oic acid]
  Conformity (C)/ Non-conformity (NC): NC (larger sizes were considered to show aggregates or non-conformity)
  Mean Diameter (nm): 188,0 nm and 187,6 nm and 213,1 nm
  PDI: 0,332 and 0,351 and 0,315

## CCCCCCCCCCCCCCCC(=O)OCC(CSC[C@H](N)C(=O)N[C@@H](CO)C(=O)N[C@@H](CCCCN)C(=O)N[C@@H](CCCCNC(=O)c1ccc(Cn2c(O)nc3c(N)nc(NCCCC)nc32)cc1)C(=O)N[C@@H](CCCCN)C(=O)N[C@@H](CCCCN)C(=O)O)OC(=O)CCCCCCCCCCCCCCC (stereo partly drawn) [CL531, (2S,5S,8S,11S,14S,17R)-17-amino-8-(4-(4-((6-amino-2-(butylamino)-8-hydroxy-9H-purin-9-yl)methyl)benzamido)butyl)-2,5,11-tris(4-aminobutyl)-14-(hydroxymethyl) -4,7,10,13,16,24-hexaoxo-21-(palmitoyloxy)-23-oxa-19-thia-3,6,9,12,15-pentaaza nonatriacontan-1-oic acid]
  Conformity (C)/ Non-conformity (NC): C (ranged between 140 and 200 nm in diameter were considered to show conformity)
  Mean Diameter (nm): 145,0 nm and 143,8 nm and 140,1 nm
  PDI: 0,144 and 0,153 and 0,138

## CCCCCCCCCCCCCCCC(=O)N[C@@H](CSCC(COC(=O)CCCCCCCCCCCCCCC)OC(=O)CCCCCCCCCCCCCCC)C(=O)N[C@@H](CO)C(=O)N[C@@H](CCCCNC(=O)c1ccc(Cn2c(O)nc3c(N)nc(NCCCC)nc32)cc1)C(=O)N[C@@H](CCCCN)C(=O)N[C@@H](CCCCN)C(=O)N[C@@H](CCCCN)C(=O)O (stereo partly drawn) [CL537, (2S,5S,8S,11S,14S,17R)-11-(4-(4-((6-amino-2-(butylamino)-8-hydroxy-9H-purin-9-yl)methyl)benzamido)butyl)-2,5,8-tris(4-aminobutyl)-14-(hydroxymethyl)-4,7,10, 13,16,24-hexaoxo-17-palmitamido-21-(palmitoyloxy)-23-oxa-19-thia-3,6,9,12,15-pentaazanonatria contan-1-oic acid]
  Conformity (C)/ Non-conformity (NC): NC (larger sizes were considered to show aggregates or non-conformity)
  Mean Diameter (nm): 198,1 nm and 203,5 nm and 219,3 nm
  PDI: 0,704 and 0,618 and 0,626

## CCCCCCCCCCCCCCCC(=O)N[C@@H](CSCC(COC(=O)CCCCCCCCCCCCCCC)OC(=O)CCCCCCCCCCCCCCC)C(=O)N[C@@H](CO)C(=O)N[C@@H](CCCCN)C(=O)N[C@@H](CCCCNC(=O)c1ccc(Cn2c(O)nc3c(N)nc(NCCCC)nc32)cc1)C(=O)N[C@@H](CCCCN)C(=O)N[C@@H](CCCCN)C(=O)O (stereo partly drawn) [CL536, (2S,5S,8S,11S,14S,17R)-8-(4-(4-((6-amino-2-(butylamino)-8-hydroxy-9H-purin-9-yl)methyl)benzamido)butyl)-2,5,11-tris(4-aminobutyl)-14-(hydroxymethyl)-4,7,10, 13,16,24-hexaoxo-17-palmitamido-21-(palmitoyloxy)-23-oxa-19-thia-3,6,9,12,15-pentaazanonatriacontan-1-oic acid]
  Conformity (C)/ Non-conformity (NC): NC (larger sizes were considered to show aggregates or non-conformity)
  Mean Diameter (nm): 231,9 nm and 236,1 nm and 225,8 nm
  PDI: 0,465 and 0,583 and 0,65
